A word on the IC50: it is the concentration needed to halve the response being measured. Low readings indicate higher potency, high ones lower potency. A word on the inhibition: it is the drop in the measured response relative to a control, in per cent. The term Kd denotes the equilibrium constant for the complex coming apart.

Where a name gives a salt, the structure may show the parent alone. Bounds are passed on as bounds.

Results on 17 compounds are retold here after patent US9309222B2, “Phenyl linked quinolinyl modulators of RORγt” (Janssen Pharmaceutica NV, priority 2012, dated 2016).

In assay [1] the target is T1, human RORγt LBD (Homo sapiens, UniProt P51449).
T1 construct: expressed in transfected cells
T1 sequence (P51449 258-518): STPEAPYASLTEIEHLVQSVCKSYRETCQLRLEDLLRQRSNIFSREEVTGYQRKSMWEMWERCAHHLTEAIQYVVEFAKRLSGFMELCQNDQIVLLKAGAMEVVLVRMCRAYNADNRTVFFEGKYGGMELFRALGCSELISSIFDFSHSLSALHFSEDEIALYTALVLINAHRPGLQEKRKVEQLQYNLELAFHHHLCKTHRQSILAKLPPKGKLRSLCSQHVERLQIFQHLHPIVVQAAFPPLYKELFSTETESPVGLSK
The experiment in a line: RORγt reporter assay (GAL4-RORγt LBD luciferase in HEK293T cells). The assay is classed as cell-based. The following applies: for IC50: HEK293T cells, 24 hours compound treatment; for inhibition at 6 µM: HEK-293T, read-out: RORγt reporter Assay, % inhibition @ 6 μM, HEK293T cells, 6 μM compound. The method in brief: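 Read-out is the firefly-to-renilla luciferase ratio versus compound concentration, after 24 h compound exposure of cells in phenol-red-free DMEM/5% lipid-reduced FCS. Cells were HEK293T bulk-transfected with a GAL4-responsive firefly reporter (pGL4.31) and GAL4 DBD–wild-type human RORγt LBD fusion (pBIND, renilla as transfection/viability control).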

The subject of assay [2] is IL-17 production by CD4 T cells. In words: Human Th17 assay (IL-17 production by CD4 T cells under Th17 differentiation conditions). It is filed as cell-based. The conditions noted are these: Homo sapiens, CD4+ T, 72 h, IL-17 in supernatant after 3 days. The method in brief:
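Primary CD4+ T cells from healthy-donor PBMC, preincubated 1 h with titrated compound (0.2% DMSO), then activated with anti-CD3/CD28 beads plus anti-IL4, anti-IFNγ, IL1β, IL23, IL6, TGFβ and IL2.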

For assay [3], the target named is T2, human RORγt ligand binding domain (RORγt LBD) (Homo sapiens, UniProt P51449).
T2 construct: His-tag (N); TurboTEV protease cleavage site (ENLYFQG) (N); made in house; host or cells: E. coli (pHIS1, modified pET vector)
T2 sequence (P51449 with tags, fused parts or gaps): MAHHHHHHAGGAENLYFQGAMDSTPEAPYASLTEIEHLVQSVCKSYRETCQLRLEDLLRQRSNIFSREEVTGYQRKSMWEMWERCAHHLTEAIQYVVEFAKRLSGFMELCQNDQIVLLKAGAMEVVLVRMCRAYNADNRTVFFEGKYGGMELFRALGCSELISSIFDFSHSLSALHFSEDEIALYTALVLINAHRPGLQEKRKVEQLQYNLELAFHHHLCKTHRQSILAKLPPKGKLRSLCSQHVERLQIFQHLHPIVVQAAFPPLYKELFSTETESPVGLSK
In words: RORγt ThermoFluor assay (thermal shift, ligand binding affinity). The conditions noted are these: estimated from concentration response of thermal shift. An outline of the steps: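 Thermal shift of 0.065 mg/mL RORγt with 60 μM 1,8-ANS in 100 mM Hepes pH 7.0, 10 mM NaCl, 2.5 mM GSH, 0.002% Tween-20. Compounds in 1:2 series from 10 mM DMSO stock. Dye fluorescence (500 nm emission) tracked versus temperature; ΔTm used to derive KD.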

Consider `Cn1cncc1C(O)(c1ccncc1)c1ccc2nc(Cl)c(-c3ccccc3)c(N3CCC(O)CC3)c2c1` (centres unmarked) [Example 73, 1-{2-Chloro-6-[hydroxy(1-methyl-1H-imidazol-5-yl)pyridin-4-ylmethyl]-3-phenylquinolin-4-yl}piperidin-4-ol•TFA], for which the IC50 in assay [1] was 360 nM; in assay [2] it was 1200 nM. The inhibition at 6 µM in assay [1] stood at 88%. Also, the Kd in assay [3] is 18 nM.
In the same order, the values of `CCCCN(C)c1nc2ccc(C(O)(c3ccncc3)c3cncn3C)cc2c(Cl)c1-c1ccccc1` (centres unmarked) [Example 76, {2-[Butyl(methyl)amino]-4-chloro-3-phenylquinolin-6-yl}(1-methyl-1H-imidazol-5-yl)pyridin-4-ylmethanol•TFA] are 4.9 nM, 40 nM, 100% and 2.3 nM.
In the same order, the values of `COc1nc2ccc(C(O)(c3cccnc3)c3cccc(Cl)c3)cc2c(Cl)c1-c1ccccc1` (centres unmarked) [Example 80, (4-Chloro-2-methoxy-3-phenylquinolin-6-yl)(3-chlorophenyl)pyridin-3-ylmethanol•TFA] are 25 nM, 120 nM, 89% and 55 nM.
The matching figures for `CC(C)Oc1nc2ccc(C(O)(c3cccnc3)c3cccc(Cl)c3)cc2c(Cl)c1-c1ccccc1` (centres unmarked) [Example 84, [4-Chloro-2-(1-methylethoxy)-3-phenylquinolin-6-yl](3-chlorophenyl)pyridin-3-ylmethanol•TFA]: 890 nM, 1300 nM, 73% and 1400 nM.
On to `Cc1cc(C(O)(c2ccc3nc(Cl)c(-c4ccccc4)c(Cl)c3c2)c2cncn2C)cc(Cl)n1` (centres unmarked) [Example 87, (2-Chloro-6-methylpyridin-4-yl)(2,4-dichloro-3-phenylquinolin-6-yl)(1-methyl-1H-imidazol-5-yl)methanol•TFA], for which the IC50 in assay [1] is 5.3 nM; in assay [2], approximately 2 nM. Moreover, the inhibition at 6 µM in assay [1] was 105%. In addition, the Kd in assay [3] was 0.11 nM.
The matching figures for `CCOc1nc2ccc(C(O)(c3ccncc3)c3cncn3C)cc2c(Cl)c1-c1ccccc1` (centres unmarked) [Example 88, (4-Chloro-2-ethoxy-3-phenylquinolin-6-yl)(1-methyl-1H-imidazol-5-yl)pyridin-4-ylmethanol•TFA]: 37 nM, 68 nM, 100% and 9.6 nM.
The matching figures for `CC(C)Oc1nc2ccc(C(O)(c3ccncc3)c3cncn3C)cc2c(Cl)c1-c1ccccc1` (centres unmarked) [Example 89, [4-Chloro-2-(1-methylethoxy)-3-phenylquinolin-6-yl](1-methyl-1H-imidazol-5-yl)pyridin-4-ylmethanol•TFA]: 160 nM, 300 nM, 99% and 34 nM.
In the same order, the values of `CC(C)Oc1nc2ccc(C(O)(c3ccncc3)c3cncn3C)cc2c(N(C)C)c1-c1ccccc1` (centres unmarked) [Example 90, [4-(Dimethylamino)-2-(1-methylethoxy)-3-phenylquinolin-6-yl](1-methyl-1H-imidazol-5-yl)pyridin-4-ylmethanol•TFA] are 300 nM, 800 nM, 96% and 91 nM.
`CCOc1nc2ccc(C(O)(c3ccncc3)c3cncn3C)cc2c(N(C)C)c1-c1ccccc1` (centres unmarked) [Example 92, [4-(Dimethylamino)-2-ethoxy-3-phenylquinolin-6-yl](1-methyl-1H-imidazol-5-yl)pyridin-4-ylmethanol•TFA]: in assay [1], the half-maximal inhibitory concentration (IC50) is 120 nM and the inhibition at 6 µM came to 100%. The compound also registered an IC50 in assay [2] of 150 nM. The Kd in assay [3] was 44 nM.
In the same order, the values of `CC(=O)N1CCC(C(O)(c2cccnc2)c2ccc3nc(Cl)c(-c4ccccc4)c(Cl)c3c2)CC1` (centres unmarked) [Example 95, (1-Acetylpiperidin-4-yl)(2,4-dichloro-3-phenylquinolin-6-yl)pyridin-3-ylmethanol•TFA] are 500 nM, 98%, more than 6000 nM and 23 nM.
The matching figures for `CC(=O)N1CCCC(C(O)(c2cccnc2)c2ccc3nc(Cl)c(-c4ccccc4)c(Cl)c3c2)C1` (centres unmarked) [Example 96, (1-Acetylpiperidin-3-yl)(2,4-dichloro-3-phenylquinolin-6-yl)pyridin-3-ylmethanol•TFA]: 370 nM, 98%, more than 6000 nM and 29 nM.
The matching figures for `CCc1nc2ccc(C(O)(c3ccncc3)c3cncn3C)cc2c(N(C)C)c1-c1ccccc1` (centres unmarked) [Example 98, [4-(Dimethylamino)-2-ethyl-3-phenylquinolin-6-yl](1-methyl-1H-imidazol-5-yl)pyridin-4-ylmethanol•TFA]: 350 nM, 98%, 300 nM and 36 nM.
As for `CCN(CC)c1nc2ccc(C(O)(c3cccnc3)c3cccc(Cl)c3)cc2c(Cl)c1-c1ccccc1` (centres unmarked) [Example 100, (4-Chloro-2-(diethylamino)-3-phenylquinolin-6-yl)(3-chlorophenyl)pyridin-3-ylmethanol•TFA], in assay [1], the IC50 was 160 nM and the inhibition at 6 µM was 95%. The concentration for half-maximal inhibition (IC50) in assay [2] came to 150 nM. The Kd in assay [3] was 350 nM.
The matching figures for `CCN(CC)c1nc2ccc(C(O)(c3ccncc3)c3cncn3C)cc2c(C)c1-c1ccccc1` (centres unmarked) [Example 102, [2-(Diethylamino)-4-methyl-3-phenylquinolin-6-yl](1-methyl-1H-imidazol-5-yl)pyridin-4-ylmethanol•TFA]: 140 nM, 104%, 150 nM and 41 nM.
Turning to `N#Cc1ccc(C(O)(c2cccc(Cl)c2)c2ccc3nc(C#N)c(-c4ccccc4)c(C#N)c3c2)cn1` (centres unmarked) [Example 104, 6-[(3-Chlorophenyl)(6-cyanopyridin-3-yl)hydroxymethyl]-3-phenylquinoline-2,4-dicarbonitrile•TFA], in assay [1], the 50% inhibitory concentration (IC50) was found to be 39 nM and the inhibition at 6 µM was determined as 100%. For the same compound, inhibition in assay [2] was half-maximal at 43 nM (IC50). Further, the Kd in assay [3] was 30 nM.
The matching figures for `CCN(CC)c1nc2ccc(C(O)(c3ccncc3)c3cncn3C)cc2c(OC)c1-c1ccccc1` (centres unmarked) [Example 105, [2-(Diethylamino)-4-methoxy-3-phenylquinolin-6-yl](1-methyl-1H-imidazol-5-yl)pyridin-4-ylmethanol•TFA]: 150 nM, 101%, 190 nM and 39 nM.
`COc1c(-c2ccccc2)c(N(C)C)nc2ccc(C(O)(c3ccncc3)c3cncn3C)cc12` (centres unmarked) [Example 107, [2-(Dimethylamino)-4-methoxy-3-phenylquinolin-6-yl](1-methyl-1H-imidazol-5-yl)pyridin-4-ylmethanol•TFA]: in assay [1], the IC50 was 59 nM and the inhibition at 6 µM was 101%. In assay [2], this compound had an IC50 of 39 nM. In addition, the Kd in assay [3] was 65 nM.
